Literature values, collected in patent US11661525B2, “Inkjet ink and inkjet recording apparatus” (KYOCERA Document Solutions Inc., priority 2020, dated 2023).
Read-outs that look alike come from different tables or passages of the source.

[1] = literature values of the octanol/water partition coefficient of representative water-soluble organic solvents

Row | Structure (SMILES) | LogP [1] | LogP (octanol/water partition coefficient of the water-soluble organic solvent used in the inks (Tables 6 and 8))
1 | CCCCCCC(O)CO (centres unmarked) [1,2-Octanediol] | 0.66 | 
2 | CCOCCOCCO [Diethylene glycol monoethyl ether] | −0.15 | 
3 | OCCOCCOCCO [Triethylene glycol] | −1.98 | 
4 | CC(CCO)CCO [3-Methyl-1,5-pentanediol] | 0.07 | 0.01
